Data published in patent US11959086B2, “Dual transit peptides for targeting polypeptides” (BASF AGRO B.V., priority 2016, dated 2024).

Assays:
Experiment in all cases: Herbicide injury evaluation of Arabidopsis plants, greenhouse
Assay type in all cases: in vivo
[1] = test system: transgenic Arabidopsis thaliana, transgene SEQ ID NO 121; conditions: Table 3, scale 0-100
[2] = test system: transgenic Arabidopsis thaliana, transgene SEQ ID NO 118; conditions: scale 0-100
[3] = test system: transgenic Arabidopsis thaliana, transgene SEQ ID NO 120; conditions: Table 4, scale 0-100
[4] = test system: Wildtype/non-transgenic Arabidopsis thaliana; conditions: scale 0-100
[5] = test system: transgenic Arabidopsis thaliana, transgene SEQ ID NO 128; conditions: Table 3, scale 0-100
[6] = test system: transgenic Arabidopsis thaliana, transgene SEQ ID NO 117; conditions: Table 3, scale 0-100

C#CCN1C(=O)COc2cc(F)c(N3C(=O)C4=C(CCCC4)C3=O)cc21 [Flumioxazin, flumioxazin] was tested, and the “Herbicide injury evaluation 14 days after herbicide treatment” value (“Herbicide injury evaluation 14 days” for short) ([1]; SEQ ID NO 121 G, 140 g ai/ha + 1% MSO) was 100, the “Herbicide injury evaluation 14 days” value ([1]; SEQ ID NO 121 G, 280 g ai/ha + 1% MSO) was 100 and the “Herbicide injury evaluation 14 days” value ([1]; SEQ ID NO 121 G, 420 g ai/ha + 1% MSO) was 100. For the same compound, the “Herbicide injury evaluation 14 days” value ([1]; SEQ ID NO 121 H, 140 g ai/ha + 1% MSO) was 100, the “Herbicide injury evaluation 14 days” value ([1]; SEQ ID NO 121 H, 280 g ai/ha + 1% MSO) was 100 and the “Herbicide injury evaluation 14 days” value ([1]; SEQ ID NO 121 H, 420 g ai/ha + 1% MSO) was 100. The “Herbicide injury evaluation 14 days” value ([2]; Table 3, SEQ ID NO 118 Q, 140 g ai/ha + 1% MSO) was 48, the “Herbicide injury evaluation 14 days” value ([2]; Table 3, SEQ ID NO 118 Q, 280 g ai/ha + 1% MSO) was 60 and the “Herbicide injury evaluation 14 days” value ([2]; Table 3, SEQ ID NO 118 Q, 420 g ai/ha + 1% MSO) was 60. The “Herbicide injury evaluation 14 days” value ([2]; Table 3, SEQ ID NO 118 R, 140 g ai/ha + 1% MSO) was 23, the “Herbicide injury evaluation 14 days” value ([2]; Table 3, SEQ ID NO 118 R, 280 g ai/ha + 1% MSO) was 28 and the “Herbicide injury evaluation 14 days” value ([2]; Table 3, SEQ ID NO 118 R, 420 g ai/ha + 1% MSO) was 28. The “Herbicide injury evaluation 14 days” value ([2]; Table 4, SEQ ID NO 118 Q, 140 g ai/ha + 1% MSO) was 60, the “Herbicide injury evaluation 14 days” value ([2]; Table 4, SEQ ID NO 118 Q, 280 g ai/ha + 1% MSO) was 65 and the “Herbicide injury evaluation 14 days” value ([2]; Table 4, SEQ ID NO 118 Q, 420 g ai/ha + 1% MSO) was 70. The “Herbicide injury evaluation 14 days” value ([2]; Table 4, SEQ ID NO 118 R, 140 g ai/ha + 1% MSO) was 63, the “Herbicide injury evaluation 14 days” value ([2]; Table 4, SEQ ID NO 118 R, 280 g ai/ha + 1% MSO) was 60 and the “Herbicide injury evaluation 14 days” value ([2]; Table 4, SEQ ID NO 118 R, 420 g ai/ha + 1% MSO) was 35. For the same compound, the “Herbicide injury evaluation 14 days” value ([3]; SEQ ID NO 120 J, 140 g ai/ha + 1% MSO) was 95, the “Herbicide injury evaluation 14 days” value ([3]; SEQ ID NO 120 J, 280 g ai/ha + 1% MSO) was 85 and the “Herbicide injury evaluation 14 days” value ([3]; SEQ ID NO 120 J, 420 g ai/ha + 1% MSO) was 95. The “Herbicide injury evaluation 14 days” value ([3]; SEQ ID NO 120 M, 140 g ai/ha + 1% MSO) was 75, the “Herbicide injury evaluation 14 days” value ([3]; SEQ ID NO 120 M, 280 g ai/ha + 1% MSO) was 98 and the “Herbicide injury evaluation 14 days” value ([3]; SEQ ID NO 120 M, 420 g ai/ha + 1% MSO) was 98. The “Herbicide injury evaluation 14 days” value ([4]; Table 3, 140 g ai/ha + 1% MSO) was 100, the “Herbicide injury evaluation 14 days” value ([4]; Table 3, 280 g ai/ha + 1% MSO) was 100 and the “Herbicide injury evaluation 14 days” value ([4]; Table 3, 420 g ai/ha + 1% MSO) was 100. The “Herbicide injury evaluation 14 days” value ([4]; Table 4, 140 g ai/ha + 1% MSO) was 100, the “Herbicide injury evaluation 14 days” value ([4]; Table 4, 280 g ai/ha + 1% MSO) was 100 and the “Herbicide injury evaluation 14 days” value ([4]; Table 4, 420 g ai/ha + 1% MSO) was 100. For the same compound, the “Herbicide injury evaluation 14 days” value ([5]; SEQ ID NO 128 D, 140 g ai/ha + 1% MSO) was 100, the “Herbicide injury evaluation 14 days” value ([5]; SEQ ID NO 128 D, 280 g ai/ha + 1% MSO) was 94 and the “Herbicide injury evaluation 14 days” value ([5]; SEQ ID NO 128 D, 420 g ai/ha + 1% MSO) was 93. The “Herbicide injury evaluation 14 days” value ([5]; SEQ ID NO 128 E, 140 g ai/ha + 1% MSO) was 93, the “Herbicide injury evaluation 14 days” value ([5]; SEQ ID NO 128 E, 280 g ai/ha + 1% MSO) was 99 and the “Herbicide injury evaluation 14 days” value ([5]; SEQ ID NO 128 E, 420 g ai/ha + 1% MSO) was 100. The “Herbicide injury evaluation 14 days” value ([6]; SEQ ID NO 117 C, 140 g ai/ha + 1% MSO) was 94, the “Herbicide injury evaluation 14 days” value ([6]; SEQ ID NO 117 C, 280 g ai/ha + 1% MSO) was 95 and the “Herbicide injury evaluation 14 days” value ([6]; SEQ ID NO 117 C, 420 g ai/ha + 1% MSO) was 95. The “Herbicide injury evaluation 14 days” value ([6]; SEQ ID NO 117 I, 140 g ai/ha + 1% MSO) was 90, the “Herbicide injury evaluation 14 days” value ([6]; SEQ ID NO 117 I, 280 g ai/ha + 1% MSO) was 94 and the “Herbicide injury evaluation 14 days” value ([6]; SEQ ID NO 117 I, 420 g ai/ha + 1% MSO) was 97.
